Values quoted from earlier work, collected in patent US7745665B2, “Substituted phenethylamines” (Auspex Pharmaceuticals, Inc., priority 2007, dated 2010).

Settings: oxidation of the methylene group alpha to the nitrogen; humans

Structure (SMILES): CNC[C@H](O)c1cccc(O)c1 [Phenylephrine, (R)-3-(1-hydroxy-2-methylamino-ethyl)-phenol]
- hydroxymandelic acid metabolite as share of the recovered mass balance: more than 50%
